Measured values from patent US9624491B2, “Methods and compositions for the detection and treatment of cancer involving miRNAs and miRNA inhibitors and targets” (Memorial Sloan Kettering Cancer Center, priority 2010, dated 2017).

Tested on: FL5-12 cells
Assay: Cell cycle and cell death (viability) assays in FL5-12 cells
Assay type: cell-based, murine
Protocol: FL5-12 murine lymphocytes, IL3 depletion studies and viral transductions were as described (Mavrakis, et al., 2008) (Plas, Talapatra, Edinger, Rathmell, & Thompson, 2001). Cell cycle and cell death assays based on uptake of DNA staining dye (LDS751) using Cell cycle and Viacount assays from Guava Technologies were performed as reported (Mavrakis, et al., 2008). The retroviral vectors are based on murine stem cell virus (MSCV) and include the miRNA expression vectors encoding miRs 17, 18a, 19b-1 (miR-19), 106a, 106b, 25 (He, et al., 2005), the vectors encoding Notch-ICN (a gift from W. Pear) (Pear, et al., 1996) and Bcl2 (Wendel, et al., 2004), the individual shRNA vectors (FIG. 17) and the library vector (MRP) (FIGS. 18a and b). miRNA inhibitor oligonucleotides (antagomirs) MZIP19a-PA-1, MZIP19b-PA-1, and scrambled control (MZIP000-PA-1) were from System Biosciences.

## miR-19: miRNA of the 17˜92 cluster, UGUGCAAAUCCAUGCAAAACUGA (SEQ ID NO: 2); seed family in Table 3 (expressed or natural sequence; listed as Homo sapiens)
FL5-12 cells withdrawn from IL3 for 48 h
  Viability: 82%±1.5%
Synchronized FL5-12 cells 24 h after release
  S-phase fraction: 24.5%±0.5
